US20230277449A1, “ORAL CAVITY POLYMERIC DELIVERY SYSTEMS” (YISSUM RESEARCH DEVELOPMENT COMPANY OF THE HEBREW …, priority 2020, published 2023)
In brackets after ≈: the same amount, converted by molar mass. Like-named read-outs stand apart in the source and are kept apart here.

Columns and labels:
[1] = In-vivo permeability study on rats (buccal administration)
in vivo = details: pig
Excerpt: 2.1.1 HPMC-based core ABPD preparation: All polymers were sieved through a 50-mesh sieve prior to their use.
The dispersion was slowly cooled with constant vigorous stirring to room temperature to obtain a solid. This solid was introduced into 8 mm flat-faced punch and die set. […] The diameter of the core was changed to 10.5 mm due to compression.
DDW and vigorously stirred until full dissolution to homogenous solution. The pH of the solution was adjusted to 5.9 by H3PO4 and KOH. The solution was cooled at room temperature for 10 min with continuous stirring.
2.1.8 In-vivo protocol of buccal administration: Following full recovery of 1 week, these (and additional) pigs underwent experiments with administration of buccal devices. The preparation of pigs for the experiments were done as previously described. Pigs were positioned on their left side. Inner side of the left cheek was gently cleaned with a gauze. […] The liquefied core was carefully collected and stored at -80° C. […] Cheeks were excised. […] The other half was fixated in 4% formaldehyde and stored for at least a month. Afterwards, these samples were trimmed, embedded in paraffin and sectioned. They were stained with Hematoxilyn and Eosin and underwent a histopathological examination. As a first step, each of the first 3 pigs received a different ABPD (as previously described): hydroxypropyl methylcellulose (HPMC) - based core, witepsol H15 - based core, or hydrogel - based core. After results evaluation, 3 additional pigs received hydrogel -based core ABPDs. Lastly, 1 pig received a hydrogel-based core ABPD with modified parameters.
The tubes were vigorously shaken for approximately 20 h. […] The supernatant was transferred to a clean tube, to which 0.3 ml of 1M NaOH and 0.7 ml 0.2 M Na2HPO4 were added. The tubes were vortex-mixed for 2 min. The pH was adjusted to 7 - 9 by NaOH and HCl. […] The supernatant was transferred to a clean tube and evaporated to dryness under vacuum. 3 ml of 0.1 M HCl were added to the tissue once again and vigorously shaken for 20 min. Afterwards, the tissue underwent the same procedure one more time with supernatant collected to respective tubes as previously. […] Samples were 2000-fold diluted in the reconstitution diluent and injected into LC-MS-MS system.
Following this analysis PK parameters were obtained.

[2] = cited from earlier work
[3] = Intravenous administration of APO to rats; assay type: in vivo; details: male, Wistar, rat, plasma, 2.0 mg/kg IV
[4] = Simulation to human plasma levels from ex-vivo Papp
[5] = Simulation of rat plasma levels after buccal administration; details: rat 330 gr, Co = 19 mg/ml, A = 0.2 cm^2, Papp = 0.51*10^-6 cm/sec
[6] = Ex-vivo permeability of APO, MTP and ATN in Ussing diffusion chamber; assay type: in vitro ADME, pig; details: pH 7.4 with addition of 10% v/v NLF
[7] = Physicochemical properties stated in the text (log P, pKa, solubility); details: gelatin hydrogel, aqueous with cosolvent or surfactant or cyclodextrin, read-out: solubility in buffered hydrogel
[8] = IV administration of APO to pigs, pharmacokinetics; details: female, pig, plasma, 1 mg/kg
[9] = Ex-vivo - in-vivo correlation (Jss and Css calculated from Papp for pig)
[10] = APO release from hydrogel-based core through dialysis bag; assay type: physicochemical; details: 20 mg APO in 0.5 ml hydrogel pH 5.9, dialysis bag
Procedure: DDW. 100.0, 120.0 or 150 mg fish gelatin were added. No gelatin was added to the fourth group. All work was done in triplicates. After vigorous stirring full dissolution to homogenous solution was achieved. The pH of the solutions was adjusted to 5.9 by H3PO4 and KOH. 0.5 ml of each solution was introduced into dialysis bag (Specta/PorⓇDialysis membrane, MWCO 25000, flat width 12 mm). The bags were submerged into a beaker with 100 ml 0.1% ascorbic acid solution adjusted to pH 5.9 by NaOH and HCl. The solutions were held at 34° C. (±1) with constant stirring. 100 µl samples were taken at time points 0, 10, 25, 40, 60, 90, 120, 150 and 180 min into a vial containing 1 µl of 10%^v/v mercaptoethanol ethanolic solution. 100 µl of fresh receiving solution was added to the beaker to retain sink conditions. […]
2.1.4 Chromatographic analysis of in-vitro samples: The samples were injected into Waters 2695 Separation Module HPLC system coupled with Waters 2475 Multi Gamma Fluorescence Detector (Waters Co., MA, USA), into BDS Hypersil Cyano (Phenomenex, CA, USA) column (5 µm, 100 Å, 250 mm × 4.6 mm) protected by Hypersil Cyano (Phenomenex, CA, USA) pre-column (5 µm, 4 mm × 10 mm). […] Linearity curve (2.5-250 µg/ml, R^2>0.997) was performed before the batch of samples and used for quantification.

[11] = Simulation of the results in pig to human setup; details: same ABPD conditions, CL difference, Eq. 2

APO in the plasma ([1]; buccal solution, three anesthetized rats, 8 h): not detected
APO concentration in the solution inside the delivery device at 8 h vs initial ([1]; rats): did not change
Cmax after removal smaller than with the four pigs (in vivo): 2 fold
Cmax of the peak higher than Css (in vivo): 4 fold
time of Cmax (in vivo): 8.7 h
time of the peak after ABPD removal (in vivo): about 45 min
Css experimentally obtained (in vivo; 1.37 mg/kg): 2.15 (±0.44) ng/ml
theoretical Css predicted (in vivo; 1.37 mg/kg): 2.24 ng/mL
AUC (in vivo; 2 mg/kg): 0.0328 µg·h/mL
AUC(0-inf) (in vivo; 2 mg/kg): 0.0507 µg·h/mL
Cmax (in vivo; 2 mg/kg): 9.7 ng/mL
clearance [3]: 9.2 L/h/kg
Vd ([3]; read-out: volume of distribution): 3.3 L/kg
Jss calculated (mg/(cm^2*h)) ([4]; 1:1 ethanol: propylene glycol, 20 mg/ml): 0.84 mg/(cm^2*h)
Jss calculated (mg/(cm^2*h)) ([4]; pH 5.9, 20 mg/ml): 0.04 mg/(cm^2*h)
Jss calculated (mg/(cm^2*h)) ([4]; pH 7.4, 20 mg/ml): 0.22 mg/(cm^2*h)
calculated Css [5]: 2.3 ng/mL
lag-time [6]: 3 h
solubility [7]: 40 mg/mL (≈ 150 mM)
AUC(0-inf) [8]: 0.107 µg·h/mL
Vd [8]: 6.6 L/kg
clearance [8]: 13.1 L/h/kg
ex-vivo predicted Css lower than in-vivo Css [9]: 4 times
Jss calculated ([9]; pH 5.9, 40 mg/ml APO in hydrogel, Eq. 3): 0.073 mg/(cm^2*h)
Css calculated from ex-vivo Papp ([9]; pig of 43 kg, 4.74 cm^2, Eq. 2): 0.59 ng/mL
time at which all APO dose was released [10]: 1.5 h
Css simulated for 70 kg human [11]: 4 to 6 ng/mL
SMILES: CN1CCc2cccc3c2[C@H]1Cc1ccc(O)c(O)c1-3 [APO, apomorphine]
CL ([2]; human, literature): 3 to 5 L/h/kg
Vd ([2]; human, literature): 1 to 2 L/kg
excreted unchanged to urine ([2]; humans): up to 4%
